For the experiment, the system named is Plasmodium falciparum Dd2 asexual blood stage parasites. Briefly: microbe, parasite or virus in culture. Further details: species or system Plasmodium falciparum Dd2 in human erythrocytes; single determination (one 11-point concentration-response curve). The conditions noted are these: Plasmodium falciparum, DD2, Erythrocyte, 72 h; read-out: AC50.

As usually defined, the AC50 is the concentration giving half of the maximal activity seen.

Consider `COc1cccc(CNCCSc2nnnn2C)c1OCc1ccc(Cl)cc1` [NCGC00103033-01], for which the AC50 worked out at 2.66 µM.

Take `CCCc1nn2c(=O)cc(COC(=O)c3cccc(NC(=O)COc4ccccc4C)c3)nc2s1` [NCGC00130805-01]: the AC50 is 13.3 µM.

For the molecule `COc1cc(NC(=O)Cn2c(=O)n(CC3CCC(C(=O)NCCc4ccccc4)CC3)c(=O)c3ccccc32)cc(OC)c1` (stereo not drawn) [NCGC00106543-01], the AC50 was found to be 5.96 µM.

Consider `Oc1ccc(Br)cc1CN1CCN(c2ccccc2)CC1` [MLS000106609-01], for which the AC50 is 2.11 µM.

Regarding `CN1C(=O)C2(c3ccccc31)N(C)CC(c1ccccc1)C21SC(=S)N(Cc2ccco2)C1=O` (stereo not drawn) [MLS000559203-01], the concentration at half-maximal activity (AC50) was 13.3 µM.

Consider `Cc1oc2c(CN3CCCCC3)c(O)ccc2c(=O)c1-c1ccc(Cl)cc1` [MLS001214839-01], for which the concentration at half-maximal activity (AC50) was 5.31 µM.

On to `CC1CCN(Cc2c(O)ccc3c(=O)c(Oc4ccccc4Cl)c(C(F)(F)F)oc23)CC1` [NCGC00101482-01], for which the half-maximal activity concentration (AC50) was 1.33 µM.

For the molecule `Cc1ccc(CN2CCOC[C@H]2c2nc(C(C)(C)C)c[nH]2)cc1` [NCGC00393602-01], the half-maximal activity concentration (AC50) was found to be 13.7 µM.

Consider `Oc1ccc(-c2ccccc2)cc1CN1CCCCCC1` [MLS001195126-01], for which the concentration at half-maximal activity (AC50) turned out to be 0.266 µM.

In the case of `CCOC(=O)C1(c2ccccc2)CCN(CCC(C#N)(c2ccccc2)c2ccccc2)CC1` [NCGC00167963-01], the concentration at half-maximal activity (AC50) is 5.31 µM.

Regarding `CCN(c1ccccc1)[S+](=O)([O-])c1cc(Br)cc2c1N(C(=O)C1CC1)CC2` [NCGC00104258-01], the concentration at half-maximal activity (AC50) came out at 2.99 µM.

`C#CCNC(=O)C[C@@H]1c2nc(NC(=O)OCC=C)sc2C[C@@H]2[C@](C)(CO)[C@H](O)CC[C@]21C` [NCGC00391491-01]: the AC50 was found to be 15 µM.

Turning to `Cc1cccc(CN2CCCN(Cc3ccncc3)C(c3ccccc3)CC(=O)NCC2)c1` (stereo not drawn) [NCGC00467184-01], the half-maximal activity concentration (AC50) was determined as 4.22 µM.

Turning to `NC(=O)C1CCN(CC(=O)Nc2cccc(C(=O)Nc3cccc(C(F)(F)F)c3)c2)CC1` [MLS000334956-01], the half-maximal activity concentration (AC50) worked out at 6.68 µM.

As to `CCOc1ccccc1CN1CCC2(CCN(CCC(C)C)CC2)Oc2ccccc21` [NCGC00478188-01], the AC50 was 3.35 µM.

On to `O=C1N(c2ccccc2C(F)(F)F)O[C@@]1(c1ccccc1)C1CCCCC1` [MLS002206598-01], for which the AC50 came to 5.31 µM.

Regarding `Cc1oc(-c2ccc(Cl)cc2)nc1Cn1c(=O)cc(-c2ccccc2)c2c(C)nn(C)c21` [NCGC00130157-01], the AC50 came out at 9.44 µM.

For the molecule `Cc1cc(C)n(CC(O)COc2ccccc2)n1` (stereo not drawn) [MLS000525359-01], the concentration at half-maximal activity (AC50) is 13.3 µM.

As for `COc1ccc(CNC[C@H]2O[C@H](Cc3cc(-c4ccc(OC)cc4)on3)CC[C@@H]2O)cc1` [NCGC00401026-01], the AC50 was 10.6 µM.

In the case of `O=c1nc(C2CCN(S(=O)(=O)/C=C/c3ccccc3)CC2)[nH]c2c1nnn2Cc1ccc(F)cc1` [MLS001229566-01], the concentration at half-maximal activity (AC50) was 13.3 µM.

Regarding `O=C(NC1CCCC1)c1ccc(OC2CCN(CCCC(F)(F)F)CC2)c(Cl)c1` [NCGC00429036-01], the half-maximal activity concentration (AC50) was 9.44 µM.

In the case of `COc1ccccc1N1CCN(CCCNC(=O)c2cnn(-c3cccc(Cl)c3)c2C2CCN(C(=O)OC(C)(C)C)CC2)CC1` [NCGC00126882-01], the AC50 amounted to 2.11 µM.

For `Cc1cccc(-n2c(/C=C/c3c(C)[nH]c4ccccc34)nc3ccccc3c2=O)c1` [NCGC00098794-01], the AC50 was 3.76 µM.

With `Cc1oc2ccc(O)c(CN3CCCCCC3)c2c1C(=O)Nc1cccc(Cl)c1C` [NCGC00115685-01], the AC50 was found to be 0.841 µM.

Regarding `Cc1cc(C(=O)CN2C(=O)NC(c3ccccc3)(c3ccccc3)C2=O)c(C)n1Cc1ccco1` [MLS000056256-01], the AC50 stood at 8.41 µM.

In the case of `OC(COc1ccccc1CNCCc1ccccc1)CN1CCSCC1` (stereo not drawn) [NCGC00427853-01], the AC50 amounted to 2.11 µM.

Consider `Cc1nc2c(c(-c3ccc(O)cc3)n1)CN(Cc1ccc(C(F)(F)F)cc1)CCC2` [NCGC00480263-01], for which the AC50 is 4.22 µM.

Consider `Cc1ccc(NC(=O)c2c(C)oc3ccc(O)c(CN4CCCCCC4)c23)cc1` [NCGC00115683-01], for which the AC50 came to 2.11 µM.

Take `Cc1ccnc2nc(C(=O)Nc3cc(Cl)ccc3N3CCOCC3)nn12` [MLS000567033-01]: the AC50 came out at 4.73 µM.

For the molecule `O=C(NCCc1c[nH]c2ccccc12)C(=O)Nc1cc2c3c(c1)CC(=O)N3CCC2` [MLS001361834-01], the AC50 was 10.6 µM.

As for `O=C(NCc1cccs1)c1nc(-c2cccc(C(F)(F)F)c2)c2cnccn12` [NCGC00476439-01], the concentration at half-maximal activity (AC50) was 9.44 µM.

For the molecule `CCCc1nc2ccc(NC(=O)c3cccs3)cc2c(=O)n1Cc1ccc(Cl)cc1` [MLS000569177-01], the AC50 amounted to 8.41 µM.

For `CCC(C)(C)n1nnnc1C(c1cccnc1)N1CCN(c2cccc(C(F)(F)F)c2)CC1` (stereo not drawn) [MLS000122548-01], the AC50 was determined as 6.68 µM.

With `C[N+](C)(C)CCN(Cc1ccc(Cl)cc1)c1ccccn1` [MLS000556881-01], the concentration at half-maximal activity (AC50) is 9.44 µM.

As to `CCN(CC)C(=O)C[C@@H]1c2nc(NC(=O)c3cccc(F)c3)sc2C[C@@H]2[C@](C)(CO)[C@H](O)CC[C@]21C` [NCGC00394316-01], the half-maximal activity concentration (AC50) is 9.44 µM.

`COc1ccc2cc1Nc1ccc(cc1)C[C@H](NCc1ccc3c(c1)CCO3)C(=O)N(C)[C@H](C(=O)NCCC(C)C)C2` [NCGC00410296-01]: the AC50 is 3.35 µM.

On to `COc1ccc(CN2CC3(CCN(C(=O)Nc4ccc(OC)c(F)c4)CC3)C2=O)cc1` [NCGC00460264-01], for which the AC50 came to 10.6 µM.

As to `Cc1sc2c(c1C)c(=O)n(-c1cccc(C(F)(F)F)c1)c(=O)n2Cc1ccc(F)cc1` [NCGC00106130-01], the AC50 was determined as 2.11 µM.

As for `COc1ccc(-c2cc(-c3ccc(N4CCOCC4)nc3)cn3cncc23)cc1` [NCGC00412184-01], the concentration at half-maximal activity (AC50) was 7.69 µM.

For `CCOC(=O)C1CCCN(C(=O)c2ccc3c(c2)N(Cc2ccccc2)C(=O)c2ccccc2[S+]3(=O)[O-])C1` (stereo not drawn) [NCGC00109839-01], the AC50 was determined as 6.68 µM.

`O=C(Nc1nccs1)C1c2ccccc2C(=O)N(C2CCCC2)C12CCCC2` (stereo not drawn) [NCGC00423502-01]: the AC50 is 4.22 µM.

With `Cc1ccc(OCCSc2nc3ccc(NC(=O)c4cccs4)cc3s2)cc1` [NCGC00118830-01], the concentration at half-maximal activity (AC50) came to 2.99 µM.

On to `Cc1ccc(-c2nc3n(n2)C(c2ccccc2Cl)C=C(c2ccc(Cl)cc2)N3)cc1` (stereo not drawn) [NCGC00105122-01], for which the concentration at half-maximal activity (AC50) was found to be 9.44 µM.

On to `CC(C)(C)n1nnnc1C(c1cc2cc3c(cc2[nH]c1=O)OCO3)N1CCN(c2ccccc2)CC1` (stereo not drawn) [MLS000072810-01], for which the AC50 turned out to be 7.5 µM.

As to `Cc1ccccc1OCCSc1nc2ccc(NC(=O)c3ccccc3)cc2s1` [NCGC00118500-01], the AC50 amounted to 15 µM.

On to `Cc1nc(-c2ccco2)cc([C@H]2CN3CC[C@H]2C[C@@H]3CNCc2ccccc2)n1` [NCGC00401513-01], for which the AC50 worked out at 4.33 µM.

As to `CCn1c(SCc2ccc(C#N)cc2)nnc1-c1ccc(S(=O)(=O)N2CCCCC2)cc1` [MLS000032588-01], the half-maximal activity concentration (AC50) turned out to be 6.68 µM.

Take `COc1ccc(C(=O)N[C@@H]2CN(Cc3cccc(OC)c3)CCC[C@H]2O)cc1` [NCGC00401653-01]: the AC50 was 10.9 µM.

Turning to `COc1cccc(NC(=O)c2ccc(-c3nnc4ccc(NC(=O)C5CCC5)cn34)cc2)c1` [NCGC00429881-01], the half-maximal activity concentration (AC50) worked out at 3.76 µM.

On to `CCOC(=O)C(C)/C(C)=N/N=C(\N)S` (stereo not drawn) [MLS000701955-01], for which the AC50 was found to be 2.66 µM.

In the case of `O=C(c1ccccc1OCC1CCCN(Cc2ccncc2F)C1)N1CCCCC1` (stereo not drawn) [NCGC00427046-01], the AC50 is 10.6 µM.
